The text below walks through data of patent US20090099135A1, “Pest control compositions and methods” (priority 2007, published 2009).

Data set [1] concerns the target T1, tyramine receptor (TyrR) (Drosophila melanogaster, UniProt P22270).
T1 construct: oligonucleotides that are used to amplify the open reading frame of the Drosophila tyramine receptor (TyrR); expressed in transfected cells
T1 sequence (P22270 27-601): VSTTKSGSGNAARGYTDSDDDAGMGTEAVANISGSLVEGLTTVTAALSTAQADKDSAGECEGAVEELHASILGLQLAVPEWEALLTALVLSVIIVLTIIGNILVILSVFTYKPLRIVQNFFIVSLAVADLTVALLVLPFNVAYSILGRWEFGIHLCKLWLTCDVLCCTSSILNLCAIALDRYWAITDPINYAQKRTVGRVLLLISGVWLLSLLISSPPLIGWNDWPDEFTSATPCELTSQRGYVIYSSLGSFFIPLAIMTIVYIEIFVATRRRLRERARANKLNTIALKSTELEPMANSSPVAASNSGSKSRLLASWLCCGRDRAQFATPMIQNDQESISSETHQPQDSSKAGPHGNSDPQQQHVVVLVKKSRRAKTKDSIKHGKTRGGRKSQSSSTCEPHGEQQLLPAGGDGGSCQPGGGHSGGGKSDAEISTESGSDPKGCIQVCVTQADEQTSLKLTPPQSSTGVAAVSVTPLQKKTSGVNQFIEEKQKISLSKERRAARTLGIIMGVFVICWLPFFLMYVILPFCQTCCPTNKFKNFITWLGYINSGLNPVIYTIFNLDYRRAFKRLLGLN
Description: Saturation binding of 3H-tyramine to membranes of Schneider cells expressing tyramine receptor. The settings on record: membranes of cells stably transfected with pAcB-TyrR. As to the method:
To study the kinetics of the tyramine receptor in stably transfected cells with pAcB-TyrR, crude membrane fractions are prepared from the transfected cells and used to calculate the equilibrium dissociation constant (Kd), Maximum Binding Capacity (Bmax), equilibrium inhibitor dissociation constant (Ki) and EC50 (effective concentration at which binding is inhibited by 50%). A preliminary study to determine the optimum concentration of membrane protein for receptor binding activity is performed. In this study, different concentrations of protein (about 10-50 μg/reaction) are incubated in about 1 ml binding buffer (50 mM Tris, pH 7.4, 5 mM MgCl2 and 2 mM ascorbic acid). The reaction is initiated by the addition of about 5 nM ^3H-tyramine with and without about […] unlabeled tyramine. After about 1 hr incubation at room temperature, reactions are terminated by filtration through GF/C filters (VWR), which have been previously soaked in about 0.3% polyethyleneimine (PEI). The filters are washed one time with about 4 ml ice cold Tris buffer and air dried before the retained radioactivity is measured using LSC. […]
To determine Bmax and Kd values for tyramine receptor (TyrR) in membranes expressing TyrR, saturation binding experiments are performed. […] Binding data is analyzed by curve fitting (GraphPad software, Prism) and the Kd for tyramine binding to its receptor is determined. […]

The next data set has as its target T2, tyramine receptor (Drosophila melanogaster, UniProt P22270).
T2 construct: oligonucleotides that are used to amplify the open reading frame of the Drosophila tyramine receptor (TyrR); expressed in transfected cells
T2 sequence (P22270 27-601): T1 sequence (P22270 27-601)
Briefly: Whole cell 3H-tyramine binding in Schneider cells transfected with tyramine receptor. As to the method: Cells transfected with the tyramine receptor (about 1×10^6 cells/ml) are cultured in each well of a multi-well plate. About 24 hours after plating the cells, the medium is withdrawn and replaced with about 1 ml insect saline (about 23 C). Different concentrations of ^3H-tyramine (about 0.1-10 nM) are added with and without about 10 μM unlabeled tyramine and incubated at room temperature (RT). After about a 20 minute incubation, the reaction is stopped by rapid aspiration of the saline and at least one wash with about 2 ml insect saline (about 23 C). Cells are solubilized in about 300 μl 0.3M NaOH for about 20 min at RT. Solubilized cells are transferred into about 4 ml Liquid Scintillation Solution (LSS) and vigorously vortexed for about 30 sec before counting the radioactivity using a Liquid Scintillation P-counter (Beckman, Model LS1801) (LSC).
Receptor specific binding data is expressed as fmol specific binding per 1×10^6 cells and measured as a function of ^3H-tyramine concentration. Specific binding values are calculated as the difference between values in the absence of and values in the presence of about 10 μM unlabeled tyramine. The maximum specific binding occurs at about 5 nM ^3H-tyramine.

Another data set has as its target Aedes aegypti. Description: Pesticidal effect (KD) against Aedes aegypti. Type of data set: in vivo. As to the method:
With reference to FIG. 4A, the pesticidal effect against Aedes aegypti was determined for Blend 23 (labeled “HL1”) and the composition including CL and Blend 23.
Similarly, with reference to FIG. 4B, the pesticidal effect against Aedes aegypti was determined for Blend 23 (labeled “HL1”) and the composition including CL and Blend 23.
Similarly, with reference to FIG. 4C, the pesticidal effect against Aedes aegypti was determined for Blend 23 (labeled “HL1”) and the composition including Imidacloprid and Blend 23.

Another data set relates to Periplaneta americana. Briefly: Pesticidal effect (mortality) against Periplaneta americana. The settings on record: Blend 23 5%. Type of data set: in vivo. As to the method: With reference to FIG. 6A, the pesticidal effect against Periplaneta americana was determined for Blend 23 (labeled “HL1”) and the composition including CL and Blend 23.
With reference to FIG. 6B, the pesticidal effect against Periplaneta americana was determined for Blend 23 (labeled “HL1”) and the composition including Imidacloprid and Blend 23.

The test system of the next data set is Culex quinquefasciatus. Description: Repellency effect against Culex quinquefasciatus (biting counts on volunteers' legs). It counts as in vivo. The method, then:
The repellency of exemplary compositions of the present invention are compared to the repellency of their individual ingredients, and to a non-treated control. Southern house mosquitoes, Culex quinquefasciatus, are obtained as test organisms. Multiple human evaluators test each treatment in a replicated experiment. Experimentation is conducted in a laboratory using multiple-chambered, plexiglass modules, each chamber stocked with about 2-10 day-old colony-reared female mosquitoes. The modules are equipped with sliding doors to expose the mosquitoes to the legs of three volunteers. Treatments are applied at about 28.6 μl to 12 cm^2 rectangular sections of skin located directly beneath the chamber openings. Each volunteer conducts 2-minute biting counts for each treatment at five time intervals: 0, 1, 2, 4 & 6 hours post-treatment. New mosquitoes are stocked into the chamber for each time interval. Ambient temperature and humidity data is recorded with a HOBO datalogger. Percent repellency is determined according to the following formula: Control−Treatment/Control X 100.

Data set [2] concerns Blattella germanica (German cockroaches). Briefly: Pesticidal effect against German cockroaches (KD and 100% kill time). It counts as in vivo. The method, then: With reference to Table 15, the pesticidal effect against Blattella germanica (German cockroaches) was determined for DM, Blend 12, and the composition including DM and Blend 12.
A synergistic effect was shown for the combination treatment that results in an average KD of the insects in 5 sec, and 100% killing of the insects in 17 seconds.

Data set [3] in a line: Interim field plot ratings, South Georgia: flower damage rating. Type of data set: in vivo. The settings on record: rate not given; 1 wk after treatment.
Another data set deals with T3, TyrR (Drosophila melanogaster, UniProt P22270).
T3 sequence (P22270 27-601): T1 sequence (P22270 27-601)
Description: TyrR competition binding assay (% binding inhibition). As to the method:
When the chemical(s) and compound(s) are combined to provide the compositions of the present invention, there is a synergistic effect.
(§1) To determine the affinities of several ligands for TyrR, increasing concentration of several compounds are tested for their ability to inhibit binding of about 2 nM ^3H-tyramine. For both saturation and inhibition assays total and non-specific binding is determined in the absence and presence of about 10 μM unlabeled-tyramine, respectively. Receptor binding reactions are incubated for about 1 hour at room temperature (RT) in restricted light. Reactions are terminated by filtration through GF/C filters (VWR), which have been previously soaked in about 0.3% polyethyleneimine (PEI). The filters are washed one time with about 4 ml ice cold Tris buffer and air dried before retained radioactivity is measured using LSC. Binding data is analyzed by curve fitting (GraphPad software, Prism).

A further data set has as its system aphids (on cotton). Description: Interim field plot ratings, South Georgia: aphids on cotton. It counts as in vivo. The settings on record: rate not given; 1 wk after treatment.
The next data set deals with Whitefly (on zucchini). Briefly: Interim field plot ratings, South Georgia: whitefly on zucchini. It counts as in vivo. The settings on record: rate not given; 1 wk after treatment.
A further data set has as its system Thrips (on cotton). Description: Interim field plot ratings, South Georgia: thrips on cotton. It counts as in vivo. The settings on record: rate not given; 1 wk after treatment.
The next data set concerns Drosophila sp. Description: Pesticidal effect (KD) against Drosophila sp. Type of data set: in vivo. The settings on record: FIG. 4D; Imidacloprid 50 ppm; Blend 23 2.5%; combination of both. The method, then: Similarly, with reference to FIG. 4D, the pesticidal effect against Drosophila sp. was determined for Blend 23 (labeled “HL1”) and the composition including Imidacloprid and Blend 23.

Data set [4] has as its target T1, tyramine receptor (TyrR). Briefly: Inhibition binding of 3H-tyramine to membranes of Schneider cells expressing tyramine receptor. The settings on record: compared with tyramine. As to the method:
To study the kinetics of the tyramine receptor in stably transfected cells with pAcB-TyrR, crude membrane fractions are prepared from the transfected cells and used to calculate the equilibrium dissociation constant (Kd), Maximum Binding Capacity (Bmax), equilibrium inhibitor dissociation constant (Ki) and EC50 (effective concentration at which binding is inhibited by 50%). A preliminary study to determine the optimum concentration of membrane protein for receptor binding activity is performed. In this study, different concentrations of protein (about 10-50 μg/reaction) are incubated in about 1 ml binding buffer (50 mM Tris, pH 7.4, 5 mM MgCl2 and 2 mM ascorbic acid). The reaction is initiated by the addition of about 5 nM ^3H-tyramine with and without about […] unlabeled tyramine. After about 1 hr incubation at room temperature, reactions are terminated by filtration through GF/C filters (VWR), which have been previously soaked in about 0.3% polyethyleneimine (PEI). The filters are washed one time with about 4 ml ice cold Tris buffer and air dried before the retained radioactivity is measured using LSC. Binding data is analyzed by curve fitting (GraphPad software, Prism). […] Therefore, about 10 μg protein/reaction is used.
as §1

As to `NCCc1ccc(O)cc1` [Blend 3H-tyramine, ^3H-tyramine], on tyramine receptor (TyrR) [1], the Bmax result is recorded as “about 0.679 μmol/mg protein” and the dissociation constant Kd (as a rule, the equilibrium constant for the complex coming apart) is approximately 1.26 nM. Besides, the “concentration at which maximum specific binding occurs” value at tyramine receptor (whole transfected cells) is on record as “about 5 nM”.

`CN/C(=N\[N+](=O)[O-])NCc1cnc(Cl)s1` [CL, clothianidin]: the “KD of target insect” value was “no KD” on Aedes aegypti (FIG. 4A, CL alone 500 ppm, CL 167 ppm combined with 2.5% Blend 23) and “no KD” on Aedes aegypti (FIG. 4B, CL alone 250 ppm, CL 167 ppm combined with 2.5% Blend 23). Further, the “mortality 30 minutes post-treatment” value in the data set on Periplaneta americana (FIG. 6A, CL 0.05%, combination of both) is “no mortality”.

Regarding `CCN(CC)C(=O)c1cccc(C)c1` [DEET, N,N-DIETHYL-3-METHYLBENZAMIDE], the “Percent repellency, 0” value in the data set on Culex quinquefasciatus (0 hours post-treatment) was found to be 40%. In the data set with Culex quinquefasciatus (1 hour post-treatment), the “Percent repellency, 1 Hour” value stood at 20%. In the data set on Culex quinquefasciatus (2 hours post-treatment), the “Percent repellency, 2 Hours” value amounted to 10%. In the data set on Culex quinquefasciatus (4 hours post-treatment), the “Percent repellency, 4 Hours” value is given as 5%. In addition, the “Percent repellency, 6 Hours” value in the data set with Culex quinquefasciatus (6 hours post-treatment) is 0%. For the same compound, in the data set with Culex quinquefasciatus (effect of composition (5% DEET and 95% Blend 9) divided by effect of comparison composition), the “Activity Ratio (repellency at 1 hour)” value is “(1.00)/(0.20) = 5.0”. Further, the “Synergy Coefficient (repellency at 1 hour)” value with Culex quinquefasciatus (of composition (5% DEET and 95% Blend 9) relative to comparison composition) is given as 100.

Take `CC1(C)[C@H](C(=O)O[C@H](C#N)c2cccc(Oc3ccccc3)c2)[C@@H]1C=C(Br)Br` [DM, deltamethrin]: the “100% Kill (time)” value in data set [2] (Example 4, DM 0.037 mg/cm^2, Blend 12 1.9 mg/cm^2) amounted to 15 min. The “100% Kill (time)” value in data set [2] (Table 16, DM 0.037 mg/cm^2) is recorded as 12 min. Moreover, the “Flower damage (1-5 rating scale; 1 = no damage)” value in data set [3] worked out at 2.2. Moreover, at TyrR, the “% TyrR Binding Inhibition” value is listed as 10%. In addition, in the data set with aphids (on cotton), the “aphids (on cotton) Adults, insect count” value was found to be 15 and the “aphids (on cotton) Nymph, insect count” value is listed as 26. In addition, in the data set with Whitefly (on zucchini), the “Whitefly (on zucchini) Adult, insect count” value is recorded as 18 and the “Whitefly (on zucchini) Nymph, insect count” value was determined as 142. Also, the “Thrips (on cotton), insect count” value in the data set with Thrips (on cotton) is 13.

Take `O=[N+]([O-])NC1=NCCN1Cc1ccc(Cl)nc1` [Imidacloprid, 1-[(6-Chloro-3-pyridinyl)methyl]-N-nitro-2-imidazolidinimine]: the “KD of target insect at 30 seconds post-treatment” value in the data set with Drosophila sp. came out at 0%. Further, the “KD of target insect at 30 seconds post-treatment” value with Aedes aegypti (FIG. 4C, Imidacloprid 250 ppm, Blend 23 2.5%, combination of both) is given as 20%. Moreover, the “KD of target insect” value on Aedes aegypti (FIG. 5, Imidacloprid 500 ppm, B5028 5%, combination of both) is “no KD”. Also, the “mortality 30 minutes post-treatment” value with Periplaneta americana (FIG. 6B, Imidacloprid alone 0.05%, 0.033%, 0.01%, Imidacloprid 0.033% combined with 5% Blend 23) is given as “no mortality”. Moreover, the “Flower damage (1-5 rating scale; 1 = no damage)” value in data set [3] stood at 2.0. Moreover, in the data set on aphids (on cotton), the “aphids (on cotton) Adults, insect count” value is listed as 0.3 and the “aphids (on cotton) Nymph, insect count” value is 1.6. Besides, in the data set on Whitefly (on zucchini), the “Whitefly (on zucchini) Adult, insect count” value is reported as 16 and the “Whitefly (on zucchini) Nymph, insect count” value turned out to be 5. Besides, the “Thrips (on cotton), insect count” value with Thrips (on cotton) amounted to 9.

Regarding `NCC(O)c1ccc(O)cc1` (stereo not shown) [Octopamine], the “efficiency at displacing 3H-tyramine binding” value (shortened to “efficiency”) on tyramine receptor (TyrR) [4] was “less efficient than tyramine”.

As for `NCCc1ccc(O)cc1` [Tyramine (TA), Tyramine], the “% TyrR Binding Inhibition” value on TyrR is listed as 75%. Besides, the “response of untransfected cells” value on tyramine receptor (concentrations as high as about 100 μM) is recorded as “do not respond”.

Regarding `NCCc1ccc(O)c(O)c1` [dopamine, Dopamine], on tyramine receptor (TyrR) [4], the “efficiency” value is recorded as “less efficient than tyramine”.

As to `NCCc1c[nH]c2ccc(O)cc12` [serotonin, Serotonin], the “efficiency” value at tyramine receptor (TyrR) [4] was “less efficient than tyramine”.
